# Laboratory results: patent US8790708B2, “Coated tablet formulations and uses thereof” (Wyeth LLC, priority 2009, dated 2014)
# Counter-ions that a name gives are not always drawn.
# Test: Surface free energy (work of cohesion) of particles
# Type: physicochemical
# Source text: This property renders the primary particles very cohesive and prone to aggregation as described by B. Janczuk and T. Bialopiotrowicz, “Surface Free-Energy Components of Liquids and Low Energy Solids and Contact Angles,” in J. Colloid Interf. Sci. 127 (1989), p. 189-204; W. R. Good, “A Comparison of Contact Angle Interpretations,” in J. Colloid Interf. Sci. 44 (1973), p. 63; M. D. Lechner (Ed.), Landolt Börnstein, New Series, Vol. IV/16, “Surface Tension of Pure Liquids and Binary Liquid Mixture,” Springer Verlag, 1998; and J. J. Jasper, “The Surface Tension of Pure Liquid Compounds,” in J. Phys. Chem. Ref. Data, Vol. 1, No. 4, 1972, p. 859. […] Due to these limitations, it was not possible to develop a neratinib maleate formulation comprising a capsule or tablet of higher strength employing a direct compression or roller compaction processes successfully. A formulation using a conventional wet granulation method led to chemical degradation and stability issues.
compound,measurement,value
"CCOc1cc2ncc(C#N)c(Nc3ccc(OCc4ccccn4)c(Cl)c3)c2cc1NC(=O)/C=C/CN(C)C [Neratinib maleate, (E)-N-(4-(3-chloro-4-(pyridin-2-ylmethoxy)phenylamino)-3-cyano-7-ethoxyquinolin-6-yl)-4-(dimethylamino)but-2-enamide]",work of cohesion (surface free energy),45.62 mN/m
